Data as given in patent US9504671B2, “Pharmaceutical compositions of spiro-oxindole compound for topical administration and their use as therapeutic agents” (Xenon Pharmaceuticals Inc., priority 2010, dated 2016).
Read-outs that look alike come from different tables or passages of the source.

Key:
[1] = solubility studies of COMPOUND A (UV spectrophotometry at 312 nm); type: physicochemical
From the text: The spiro-oxindole compound of the invention, particularly, COMPOUND A, is relatively lipophilic and has poor water solubility.
Attempts to improve the solubility of COMPOUND A for use in a topical pharmaceutical composition, preferably as an ointment, were undertaken using a variety of solubilization techniques. The aim was to conduct a thorough investigation of the use of various pharmaceutically acceptable excipients to maximize the solubility of COMPOUND A. A series of solubility studies, which were performed using standard solubility testing techniques, was therefore carried out to identify proper excipient(s) and/or excipient combinations for achieving the target dosage strength for COMPOUND A. The solubility of COMPOUND A in these studies was determined by UV spectrophotometry using COMPOUND A's UV absorbance wavelength at 312 nm.

sodium channel = assay: guanidine influx assay disclosed in WO 06/110917; type: cell-based; settings: read-out: IC50, inhibition of ion flux through a sodium channel
From the text: The IC50 (“Inhibitory Concentration—50%”) is a measure of the amount of compound required to achieve 50% inhibition of ion flux through a sodium channel, over a specific time period, in an assay of the invention.

[2] = test system: CFA-induced inflammatory pain model; assay: CFA induced chronic inflammatory pain, von Frey mechanical paw withdrawal threshold; type: in vivo, rats; settings: fourth day, 30 minutes post-dosing
Description: In this test, mechanical hyperalgesia is assessed with electronic von Frey filament by means of Electrovonfrey anesthesiometer (Model 2290, IITC Life Science, Woodland Hills, Calif.). Following a full week of acclimatization to the vivarium facility, 150 μL of the “Complete Freund's Adjuvant” (CFA) emulsion (CFA suspended in an oil/saline (1:1) emulsion at a final concentration of 0.5 mg/mL) was injected subcutaneously into the plantar surface of the left hind ankle joint of rats under light isoflurane anaesthesia. Animals were allowed to recover from the anaesthesia and the baseline mechanical nociceptive thresholds of all animals were assessed one week after the administration of CFA. All animals were habituated to the experimental chambers for 20 minutes on the day of the experiment. The animals were then randomly assigned to 5 different test groups including a vehicle control group and 4 pharmaceutical compositions with COMPOUND A at 1%, 2%, 4% and 8% (w/w) groups. After baseline measurements, animals were anaesthetized under isoflurane, shaved at the site of application, and then dosed by application of 50 mg test compositions on the entire ipsilateral hind ankle and foot. Animals were then placed in Plexiglas tubes for 30 minutes to prevent early removal/ingestion of drug. Test compositions were applied twice a day for 3 days. On the fourth day, immediately after application, animals were placed in tubes for 15 minutes and then removed and placed in Plexiglas enclosures for 15 minutes prior to making paw withdrawal measurements. Von Frey withdrawal thresholds were measured as the mean of several independent determinations made within 1-2 minutes of each other on the affected paw of each animal 30 minutes post-dosing. The time point used was previously determined to show the highest analgesic effect for each test composition.
(§1) The response thresholds of animals to tactile stimuli were measured using the Model 2290 Electrovonfrey anesthesiometer (IITC Life Science, Woodland Hills, Calif.). Animals were placed in an elevated Plexiglas enclosure set on a mire mesh surface. After 15 minutes of accommodation, a von Frey hair was applied perpendicularly to the plantar surface of the ipsilateral hind paws of the animals with sufficient force, measured in grams, to elicit a crisp response of the paw. The response indicated a withdrawal from the painful stimulus and constituted the efficacy endpoint.

[3] = test system: CCI-induced neuropathic pain model; assay: time course of efficacy in neuropathic pain model, Chronic Constriction Injury, von Frey; type: in vivo, Sprague-Dawley rats
Description: Neuropathic pain is characterized by spontaneous pain and stimulus-evoked allodynia and hyperalgesia. Pharmaceutical compositions of the invention were evaluated in Chronic Constriction Injury model using Sprague-Dawley rats as described below.
An approximately 3 cm incision was made through the skin and the fascia at the mid thigh level of a rat's left hind leg using a no. 10 scalpel blade. The left sciatic nerve was exposed via blunt dissection through the biceps femoris with care to minimize haemorrhagia. Four loose ligatures were tied along the sciatic nerve using four chromic gut sutures at intervals of 1 mm to 2 mm apart. The tension of the loose ligatures was tight enough to induce slight constriction of the sciatic nerve when viewed under a dissection microscope at a magnification of 4 fold. As sham controls, the right sciatic nerve was exposed and manipulated in the same manner as described above, except sutures were not tied onto the nerve. Antibacterial ointment was applied directly into the wound, and the muscle was closed using sterilized sutures. Betadine® was applied onto the muscle and its surroundings, followed by skin closure with surgical clips.
A painful neuropathy was allowed to develop for at least 14 days in the ipsilateral leg as determined by lower paw withdrawal thresholds to a mechanical stimulus. Only those with significant hyperalgesia, as determined by reduced threshold of paw withdrawal to the von Frey filament, measured in grams, were enrolled in the study.
as §1, with “Plexiglass” for “Plexiglas”, “endpoint. The force (in grams) required to elicit a crisp withdrawal response was recorded before dosing as a baseline measurement, and at multiple time points post-dosing.” for “endpoint.”
Three days prior to baseline measurement, animals were anaesthetized under isoflurane and the whole of the ipsilateral hind legs, including the upper sciatic notch thigh area, ankle and foot, was shaved. The animals were then randomly assigned to one of 4 different test groups including a vehicle control group, a 5% (w/v) Lidocaine (Xylocaine®), and 2 pharmaceutical compositions of the invention comprising COMPOUND A at 4% (w/w) containing either 5% or 10% Transcutol® P. After baseline measurement, 100 mg of the test composition was applied on the entire shaved area. The animals were then placed in plastic tubes for at least 15 minutes, to prevent early removal/ingestion of drug. Subsequently, animals were placed in the Plexiglas enclosure 15 minutes before von Frey measurement at the respective time points. Von Frey withdrawal thresholds were measured as the mean of several independent determinations made within 1-2 minutes of each other on the affected paw of each animal at 0.5, 1 and 2 hours post dosing.

In the case of `O=C1N(Cc2ccc(C(F)(F)F)o2)c2ccccc2[C@]12COc1cc3c(cc12)OCO3` [COMPOUND A, (S)-1′-{[5-(trifluoromethyl)furan-2-yl]methyl}spiro[furo[2,3-f][1,3]benzodioxole-7,3′-indol]-2′(1′H)-one], the solubility ([1]; aqueous solution with pH adjusted to 2, aqueous buffer, pH 2, 7.4 and 12, read-out: solubility on varying the pH of a solution) is reported as < 5 µg/mL, the solubility ([1]; water, read-out: water solubility) is reported as < 5 µg/mL and the IC50 (sodium channel) is reported as < 1000 nM. The “von Frey mechanical paw withdrawal threshold, percent CFB” value ([2]; 1% (w/w) topical composition) was “did not demonstrate an observable increase”, the “von Frey mechanical paw withdrawal threshold, percent CFB” value ([2]; 2% (w/w) topical composition) was “statistically significant increases” and the “von Frey mechanical paw withdrawal threshold, percent CFB” value ([2]; 4% (w/w) topical composition) was “statistically significant increases”. For the same molecule, the “von Frey mechanical paw withdrawal threshold, percent change from baseline (CFB)” value ([2]; 8% (w/w) topical composition, 50 mg twice a day for 3 days) was “+45.1%”, the “von Frey mechanical paw withdrawal threshold, percent CFB” value ([2]; 8% (w/w) topical composition) was “statistically significant increases” and the “paw withdrawal threshold, percent mean change from baseline (CFB)” value ([3]; 4% (w/w) in 5% Transcutol P composition, 100 mg applied, 0.5 hours post-dosing) was “+26.3%”. For the same molecule, the “paw withdrawal threshold, percent mean change from baseline (CFB)” value ([3]; 4% (w/w) in 5% Transcutol P composition, 1 hour post-dosing) was “+18.1%”, the “paw withdrawal threshold, percent mean change from baseline (CFB)” value ([3]; 4% (w/w) in 10% Transcutol P composition, 100 mg applied, 0.5 hours post-dosing) was “+33.8%” and the “paw withdrawal threshold, percent mean change from baseline (CFB)” value ([3]; 4% (w/w) in 10% Transcutol P composition, 1 hour post-dosing) was “+26.7%”. The “duration of analgesic effects post-dosing” value ([3]; 4% (w/w) in 10% transcutol composition, from 0.5 hour) was “up to 2 hours”.
